# In publication PMC7074965, “Discovery of Two Brominated Oxindole Alkaloids as Staphylococcal DNA Gyrase and Pyruvate Kinase Inhibitors via Inverse Virtual Screening” (Microorganisms, 2020):
# Like-named read-outs stand apart in the source and are kept apart here.
# Key:
# MRSA ATCC33591 = assay: MIC determination, twofold serial dilution; assay type: cell-based; details: Staphylococcus aureus, read-out: MIC (MRSA)
# Description: (§1) All the bacterial strains were maintained at −80 °C in 15% glycerol nutrient broth (Oxoid, Milan, Italy).
# (§2) The twofold serial dilution approach was applied to determine the MICs of each compound. Each tested compound was dissolved in DMSO (Sigma, Milan, Italy) to prepare the test solutions. Many colonies of each tested bacterial strain were inoculated in 10 mL of sterilized Mueller–Hinton broth (MHB) (Oxoid) and incubated at 37 °C for 18–24 h. […] All data are reported as the mean of three independent experiments.
# [1] = test system: Pseudomonas aeruginosa ATCC9027; assay: MIC determination, twofold serial dilution; assay type: cell-based; details: read-out: MIC (P. aeruginosa)
# Description: as §1, §2
# [2] = test system: Bacillus subtilis ATCC5230; assay: MIC determination, twofold serial dilution; assay type: cell-based; details: read-out: MIC (B. subtilis)
# Description: as §1, §2
# [3] = test system: Escherichia coli ATCC 259228; assay: MIC determination, twofold serial dilution; assay type: cell-based; details: read-out: MIC (E. coli)
# Description: as §1, §2
# Pim-1 kinase = test system: Pim-1 kinase; design: method as in PMID 30061488, PMID 30525020, PMID 31395834; details: previously reported; cited from earlier work
# [4] = 24 h incubation, mean of three experiments
# [5] = Pseudomonas aeruginosa, ATCC9027, 24 h incubation, mean of three experiments
# [6] = Bacillus subtilis, ATCC5230, 24 h incubation, mean of three experiments
# [7] = Escherichia coli, ATCC259228, 24 h incubation, mean of three experiments
# [8] = Pseudomonas aeruginosa, ATCC9027, 24 h
# [9] = Bacillus subtilis, ATCC5230, 24 h
# [10] = Escherichia coli, ATCC259228, 24 h
Compound,MIC (MRSA ATCC33591; [4]) [µM],"MIC [1, 5] [µM]","MIC [2, 6] [µM]","MIC [3, 7] [µM]","MIC [1, 4] [µM]","MIC [2, 4] [µM]","MIC [3, 4] [µM]",other results
"O=C1Nc2ccccc2C1(c1c[nH]c2ccccc12)c1c[nH]c2ccccc12 [Compound 3, Trisindoline]",32,> 256,16,> 256,–,–,–,–
"CC(c1c[nH]c2ccccc12)c1c[nH]c2ccccc12 [Compound 4, Vibrindole]",64,> 256,64,128,–,–,–,–
"CC(=O)C[C@]1(O)C(=O)Nc2cc(Br)ccc21 [Compound 5, Convolutamidine F]",128,> 256,128,> 256,–,–,–,Pim-1 kinase inhibition (Pim-1 kinase): potent cytotoxic Pim-1 kinase inhibitors
"O=C1Nc2cc(Br)ccc2[C@@]1(O)c1c[nH]c2ccccc12 [Compound 6, (S) 6-bromo-3-hydroxy-3-(1H-indol-3-yl) indolin-2-one]",–,–,–,–,–,–,–,"MIC (MRSA ATCC33591; 24 h): > 256 µM; MIC [1, 8]: > 256 µM; MIC [2, 9]: 128 µM; MIC [3, 10]: > 256 µM"
"COc1ccc(/C=C/C(=O)/C=C2/C(=O)Nc3cc(Br)ccc32)cc1 [Compound 7, Saccharomon osp orine A]",> 256,> 256,> 256,> 256,–,–,–,Pim-1 kinase inhibition (Pim-1 kinase): potent cytotoxic Pim-1 kinase inhibitors
"O=C1Nc2ccccc2C1=O [Compound 8, Isatine]",–,–,–,–,> 256,> 256,> 256,–
"O=C1Nc2ccc(Br)cc2C1=O [Compound 9, 5-Bromoisatine]",128,> 256,128,> 256,–,–,–,–
"O=C1Nc2cc(Br)ccc2C1=O [Compound 10, 6-Bromoisatine]",128,> 256,128,128,–,–,–,–
"CC(=O)/C=C1/C(=O)Nc2ccc(Br)cc21 [Compound 11, (E)-5-bromo-3-(2-oxopropylidene)indolin-2-one]",–,–,–,–,> 256,> 256,> 256,–
"Cc1c[nH]c2ccccc12 [Compound 12, Skatole]",–,–,–,–,> 256,> 256,> 256,–
"O=Cc1c[nH]c2ccccc12 [Compound 13, Indole-3-carbaldehyde]",> 256,> 256,> 256,> 256,–,–,–,–
"OCCc1c[nH]c2ccccc12 [Compound 14, Tryptophol]",> 256,> 256,> 256,> 256,–,–,–,–
"O=C(O)C(=O)Cc1c[nH]c2ccccc12 [Compound 15, Indole-3-pyruvic acid]",> 256,> 256,> 256,> 256,–,–,–,–
"COc1ccc(C(=O)O)cc1 [Compound 16, p-Anisic acid]",> 256,> 256,> 256,> 256,–,–,–,–
"COC(=O)c1ccc(OC)cc1 [Compound 17, p-Anisic acid methyl ester]",–,–,–,–,> 256,> 256,> 256,–
"COc1cc(C(=O)O)cc(OC)c1O [Compound 18, Syringic acid]",> 256,> 256,> 256,> 256,–,–,–,–
"Nc1ccccc1C(=O)O [Compound 19, Anthranilic acid]",–,–,–,–,–,–,–,"MIC (MRSA ATCC33591; 24 h): > 256 µM; MIC [1, 8]: > 256 µM; MIC [2, 9]: > 256 µM; MIC [3, 10]: > 256 µM"

Compound,MIC (MRSA ATCC33591; [4]) [µM],"MIC [1, 5] [µM]","MIC [2, 6] [µM]","MIC [3, 7] [µM]","MIC [1, 4] [µM]","MIC [2, 4] [µM]","MIC [3, 4] [µM]",other results
"O=Cc1ccc(O)cc1 [Compound 20, p-Hydroxy benzaldehyde]",–,–,–,–,> 256,> 256,> 256,–
"O=Cc1cc(O)ccc1O [Compound 21, Gentisaldehyde]",–,–,–,–,> 256,> 256,> 256,–
"COc1ccc(C(=O)OCc2ccccc2)cc1 [Compound 22, Benzyl anisate]",–,–,–,–,> 256,> 256,> 256,–
"COc1cc(C(C)=O)cc(OC)c1O [Compound 23, Acetosyringone]",> 256,> 256,> 256,> 256,–,–,–,–
"COc1cc(/C=C/C(=O)O)cc(OC)c1O [Compound 24, Sinapic acid]",–,–,–,–,> 256,> 256,> 256,–
"O=C(O)Cc1ccccc1 [Compound 25, Phenyl acetic acid]",–,–,–,–,–,–,–,"MIC (MRSA ATCC33591; 24 h): > 256 µM; MIC [1, 8]: > 256 µM; MIC [2, 9]: > 256 µM; MIC [3, 10]: > 256 µM"
"O=C(O)c1ccc2ccccc2c1O [Compound 26, 1-Hydroxy-2-naphthoic acid]",> 256,> 256,> 256,> 256,–,–,–,–
"O=C(O)c1cc(O)c2ccccc2c1O [Compound 27, 1,4 Dihydroxy-2-naphthoic acid]",–,–,–,–,> 256,> 256,> 256,–
"CC(C)CCC[C@@H](C)[C@H]1CC[C@H]2[C@@H]3CCC4=CC(=O)CC[C@]4(C)[C@H]3CC[C@]12C [Compound 29, Cholestenone]",–,–,–,–,> 256,> 256,> 256,–
"CC(C)CCC[C@@H](C)[C@H]1CC[C@H]2[C@@H]3CC[C@H]4CC(=O)CC[C@]4(C)[C@H]3CC[C@]12C [Compound 30, 5α-Cholestanone]",–,–,–,–,> 256,> 256,> 256,–
"CC[C@H](/C=C/[C@@H](C)[C@H]1CC[C@H]2[C@@H]3CCC4=CC(=O)CC[C@]4(C)[C@H]3CC[C@]12C)C(C)C [Compound 31, Stigmasterone]",–,–,–,–,> 256,> 256,> 256,–
"CC[C@H](C=C[C@@H](C)[C@H]1CC[C@H]2[C@@H]3CC(=O)C4=CC(=O)CC[C@]4(C)[C@H]3CC[C@]12C)C(C)C [Compound 32, Stigmasta-4,22-dien-3,6-dione]",–,–,–,–,> 256,> 256,> 256,–
"CC(C)[C@@H](C)/C=C/[C@@H](C)[C@H]1CC[C@@H]2[C@]1(C)CC[C@H]1[C@]23C=C[C@]2(C[C@@H](O)CC[C@]12C)OO3 [Compound 33, Ergosterol peroxide]",> 256,> 256,> 256,> 256,–,–,–,–
"CC1=CCC2C(CC[C@@]2(C)O)C(C)(C)C1CC[C@@H]1[C@@]2(C)CCC(=O)C(C)(C)O[C@@H]2CC[C@]1(C)O (stereo partly drawn) [Compound 34, Sipholenone A]",> 256,> 256,> 256,> 256,–,–,–,–
"CC1=CCC2C(CC[C@@]2(C)O)C(C)(C)C1CC[C@@H]1[C@@]2(C)CC[C@@H](O)C(C)(C)O[C@@H]2CC[C@]1(C)O (stereo partly drawn) [Compound 35, Sipholenol A]",> 256,> 256,> 256,> 256,–,–,–,–
"CCCCCCCCCCC/C=C\CCCCC(=O)O [Compound 36, Petroselenic acid]",–,–,–,–,> 256,> 256,> 256,–
Callysterol [Compound 28],–,–,–,–,> 256,> 256,> 256,–
